Assay results as given in patent publication US7601716B2, “Pyridopyrazines and derivatives thereof as ALK and c-Met inhibitors” (Cephalon, Inc., priority 2006, dated 2009).

Key:
[1] = target: T1, c-Met (phospho-c-Met) in HT29 cells (Homo sapiens, UniProt P08581); test: c-Met Cellular Activity/Autophosphorylation Assay, HT29 cells; assay type: cell-based
T1 construct: endogenous in cells; host or cells: HT29, A549 (HGF-stimulated), GTL-16
Procedure, shortened: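 HT29 and GTL-16 cells serum-starved 1 h in 0.05% BSA with compound (1-10 μM); A549 serum-starved overnight, compound-treated 1 h, then HGF 50 ng/mL for 15 min. Lysates Western blotted; phospho-c-Met and total c-Met quantified by infrared fluorescence imaging.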

[2] = target: T2, c-Met (phospho-c-Met) in GTL-16 cells (Homo sapiens, UniProt P08581); test: c-Met Cellular Activity/Autophosphorylation Assay, GTL-16 cells; assay type: cell-based
T2 construct: endogenous in cells; host or cells: HT29, A549 (HGF-stimulated), GTL-16
T2 sequence (P08581 25-1390): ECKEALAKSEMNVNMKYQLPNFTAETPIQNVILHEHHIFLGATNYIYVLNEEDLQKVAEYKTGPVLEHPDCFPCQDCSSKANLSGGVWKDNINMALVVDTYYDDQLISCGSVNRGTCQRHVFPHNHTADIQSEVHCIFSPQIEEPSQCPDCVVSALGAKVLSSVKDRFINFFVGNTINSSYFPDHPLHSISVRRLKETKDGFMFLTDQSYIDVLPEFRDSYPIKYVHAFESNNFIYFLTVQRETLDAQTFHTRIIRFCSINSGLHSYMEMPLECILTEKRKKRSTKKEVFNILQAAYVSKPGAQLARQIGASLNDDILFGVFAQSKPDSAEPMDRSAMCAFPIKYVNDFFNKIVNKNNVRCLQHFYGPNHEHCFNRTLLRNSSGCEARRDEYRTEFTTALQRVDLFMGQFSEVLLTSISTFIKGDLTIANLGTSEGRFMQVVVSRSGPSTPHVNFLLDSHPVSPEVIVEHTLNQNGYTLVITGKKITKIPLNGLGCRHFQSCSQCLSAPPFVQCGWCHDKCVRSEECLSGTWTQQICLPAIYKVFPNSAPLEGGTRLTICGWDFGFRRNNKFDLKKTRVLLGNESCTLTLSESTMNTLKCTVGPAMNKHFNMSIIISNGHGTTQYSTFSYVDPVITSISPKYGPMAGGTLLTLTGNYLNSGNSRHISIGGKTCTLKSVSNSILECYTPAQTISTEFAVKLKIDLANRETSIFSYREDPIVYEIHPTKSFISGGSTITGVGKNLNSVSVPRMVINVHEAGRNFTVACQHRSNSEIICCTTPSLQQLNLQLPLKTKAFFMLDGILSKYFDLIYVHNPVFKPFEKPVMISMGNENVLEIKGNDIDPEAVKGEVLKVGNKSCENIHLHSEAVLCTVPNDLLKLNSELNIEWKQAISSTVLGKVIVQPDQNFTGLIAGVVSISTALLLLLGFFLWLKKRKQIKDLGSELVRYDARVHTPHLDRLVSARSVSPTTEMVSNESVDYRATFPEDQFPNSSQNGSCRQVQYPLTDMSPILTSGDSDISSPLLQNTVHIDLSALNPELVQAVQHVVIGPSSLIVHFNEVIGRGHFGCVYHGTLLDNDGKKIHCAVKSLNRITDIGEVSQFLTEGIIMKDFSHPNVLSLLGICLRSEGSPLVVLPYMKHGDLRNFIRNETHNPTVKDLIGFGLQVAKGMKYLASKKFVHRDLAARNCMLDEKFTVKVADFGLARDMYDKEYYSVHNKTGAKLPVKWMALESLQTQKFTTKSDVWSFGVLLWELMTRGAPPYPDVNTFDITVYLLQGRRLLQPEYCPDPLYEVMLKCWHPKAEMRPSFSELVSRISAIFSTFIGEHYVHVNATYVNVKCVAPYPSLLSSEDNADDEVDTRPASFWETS
Method: HT29 and GTL-16 cells were serum starved for one hour in media containing 0.05% BSA and varying concentrations of Example compounds (1-10 μM). A549 cells were serum starved overnight in media containing 0.05% BSA then treated for one hour with Example compounds followed by a 15 minute stimulation with 50 ng/mL HGF (Peprotech, Rocky Hill, N.J.), respectively. Samples were resolved by electrophoresis on a 3-8% Tris-Acetate gel (40 ma/gel) and then transferred to a nitrocellulose membrane. Membranes were blocked for one hour at room temperature in Odyssey Blocking Buffer (Licor #927-40000) diluted 1:1 with 1×TBS. Membranes were then co-incubated overnight at 4° C. with primary antibodies [total Met (Cell Signaling, #3127) and Phospho-Met (Biosource, #44-888G) 1:1000 each in Odyssey Blocking Buffer diluted 1:1 with 1×TBS-T 0.05%]. The next day, membranes were washed and co-incubated with secondary antibodies [Goat anti mouse IRDye800 (Rockland, #610-132-121) and Goat anti rabbit Alexa fluor 700 (Molecular Probes, #A21038) 1:10,000] in Odyssey Blocking Buffer diluted 1:1 with 1×TBS-T 0.05% for one hour at room temperature protected from light. Blots were then washed and read on the Odyssey Infrared Imager. Total c-Met signal was visualized at 800 nm detection and phospho-c-Met signal was visualized at 700 nm detection.

NPM-ALK = target: T3, NPM-ALK (Homo sapiens, UniProt Q9UM73); test: ALK Cellular Assay (phospho-NPM-ALK immunoblot / ALK tyrosine phosphorylation ELISA); assay type: cell-based
T3 construct: a fusion protein consisting of nucleophosmin (NMP) and the intracellular domain of ALK; the other entry of the earlier key: NPM1 (P06748, Nucleophosmin)
Procedure, shortened: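 Compound-treated cells lysed; phospho-NPM-ALK (Y664) and total ALK detected by immunoblot with ECL and quantified by densitometry. Alternatively, an ELISA captured ALK from lysates overnight at 4 °C, detected anti-phospho-ALK (Y664) with alkaline phosphatase and a 4-MeUP fluorogenic read-out.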

[3] = target: T4, c-Met (cytoplasmic domain) (Homo sapiens, UniProt P08581); test: c-Met Kinase Assay (ELISA/TRF, PLC-γ substrate); assay type: biochemical; details: 3 μM ATP (Km level); read-out: c-Met Kinase Inhibition (IC50)
T4 construct: Reactions were initiated with 30 ng/mL c-Met (cytoplasmic domain, Invitrogen Corporation #PV3143); purchased Invitrogen Corporation PV3143
T4 sequence (P08581 956-1390 limits assumed): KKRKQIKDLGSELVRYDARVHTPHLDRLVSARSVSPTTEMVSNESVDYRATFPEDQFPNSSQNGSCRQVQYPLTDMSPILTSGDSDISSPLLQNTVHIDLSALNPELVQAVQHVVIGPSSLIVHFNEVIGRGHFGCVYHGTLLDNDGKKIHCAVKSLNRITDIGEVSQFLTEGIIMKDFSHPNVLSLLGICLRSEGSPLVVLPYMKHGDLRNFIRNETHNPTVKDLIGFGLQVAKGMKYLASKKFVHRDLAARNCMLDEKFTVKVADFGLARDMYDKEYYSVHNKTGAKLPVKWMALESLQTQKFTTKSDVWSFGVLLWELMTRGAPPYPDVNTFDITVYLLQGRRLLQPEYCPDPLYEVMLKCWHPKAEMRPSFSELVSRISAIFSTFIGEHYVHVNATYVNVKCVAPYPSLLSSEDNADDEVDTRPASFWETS
Procedure, shortened: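 Readout is TRF of europium anti-phosphotyrosine (PT66) bound to GST–PLC-γ substrate coated at 10 μg/mL, after a 15 min, 37 °C reaction started with 30 ng/mL c-Met cytoplasmic domain. Percent inhibition plotted against log compound concentration and fitted (variable slope) for IC50.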

[4] = target: baculovirus-expressed ALK (Homo sapiens, UniProt Q9UM73); test: ALK Kinase Assay (ELISA/TRF, PLC-γ substrate); assay type: biochemical; details: read-out: ALK Kinase Inhibition (IC50); also: 1 µM ATP (Km level)
Sequence of baculovirus-expressed ALK (Q9UM73 19-1620): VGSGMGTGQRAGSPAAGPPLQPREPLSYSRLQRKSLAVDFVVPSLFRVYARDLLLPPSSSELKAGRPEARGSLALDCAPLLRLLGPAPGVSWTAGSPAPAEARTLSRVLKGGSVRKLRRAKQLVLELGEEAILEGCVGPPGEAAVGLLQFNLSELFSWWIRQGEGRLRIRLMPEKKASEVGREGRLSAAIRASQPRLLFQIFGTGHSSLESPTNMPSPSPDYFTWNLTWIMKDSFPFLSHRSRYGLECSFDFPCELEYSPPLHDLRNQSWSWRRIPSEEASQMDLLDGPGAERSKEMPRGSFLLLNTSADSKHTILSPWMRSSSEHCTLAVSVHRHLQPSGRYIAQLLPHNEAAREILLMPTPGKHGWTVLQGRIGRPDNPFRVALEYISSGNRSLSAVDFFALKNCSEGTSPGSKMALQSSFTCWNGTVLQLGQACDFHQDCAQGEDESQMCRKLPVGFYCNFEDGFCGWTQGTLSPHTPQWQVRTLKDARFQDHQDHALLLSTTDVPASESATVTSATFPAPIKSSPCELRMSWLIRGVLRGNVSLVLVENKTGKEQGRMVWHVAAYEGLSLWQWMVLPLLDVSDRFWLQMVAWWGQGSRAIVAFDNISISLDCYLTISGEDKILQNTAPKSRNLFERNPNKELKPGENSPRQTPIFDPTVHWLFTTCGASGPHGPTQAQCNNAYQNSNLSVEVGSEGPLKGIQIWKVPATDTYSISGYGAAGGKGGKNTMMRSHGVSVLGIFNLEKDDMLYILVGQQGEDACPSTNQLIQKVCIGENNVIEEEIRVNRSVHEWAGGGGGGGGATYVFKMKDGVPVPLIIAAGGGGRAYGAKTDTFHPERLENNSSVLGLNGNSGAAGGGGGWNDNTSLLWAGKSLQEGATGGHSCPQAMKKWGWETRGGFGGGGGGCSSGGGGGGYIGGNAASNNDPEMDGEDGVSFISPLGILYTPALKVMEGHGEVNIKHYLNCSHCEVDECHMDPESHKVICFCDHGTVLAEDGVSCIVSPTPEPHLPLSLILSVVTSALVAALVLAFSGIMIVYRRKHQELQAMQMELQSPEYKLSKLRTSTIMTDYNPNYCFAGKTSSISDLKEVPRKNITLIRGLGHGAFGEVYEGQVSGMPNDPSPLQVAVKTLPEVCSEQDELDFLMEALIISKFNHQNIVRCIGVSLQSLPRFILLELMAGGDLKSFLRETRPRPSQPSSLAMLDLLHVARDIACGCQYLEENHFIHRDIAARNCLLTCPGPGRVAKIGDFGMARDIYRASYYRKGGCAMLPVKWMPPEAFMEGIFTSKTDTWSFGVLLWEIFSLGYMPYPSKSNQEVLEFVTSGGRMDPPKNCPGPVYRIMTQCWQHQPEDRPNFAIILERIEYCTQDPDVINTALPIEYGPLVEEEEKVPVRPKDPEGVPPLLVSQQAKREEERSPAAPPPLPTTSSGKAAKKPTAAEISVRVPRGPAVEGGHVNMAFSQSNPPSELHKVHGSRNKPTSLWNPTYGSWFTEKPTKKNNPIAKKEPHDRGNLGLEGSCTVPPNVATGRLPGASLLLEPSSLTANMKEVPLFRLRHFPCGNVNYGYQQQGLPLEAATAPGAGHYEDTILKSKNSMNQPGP
Procedure, shortened: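 Substrate phosphorylation by 30 ng/ml ALK (37° C, 15 min) on PLC-γ-coated wells is quantified via time-resolved europium fluorescence from an anti-phosphotyrosine antibody. Percent inhibition against log10 compound concentration yields IC50 by nonlinear regression.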

T1 sequence (P08581 25-1390): as the sequence (P08581 25-1390) above

inhibition at 1 µM ([1]; HT-29, 1 μM compound, read-out: c-Met autophosphorylation inhibition score, HT29 Cells (1 μM)): 26 to 50% | inhibition at 3 µM ([1]; HT-29, 3 μM compound, read-out: c-Met autophosphorylation inhibition score, HT29 Cells (3 μM)): 26 to 50% | melting point: 157 °C | inhibition at 1 µM ([2]; 1 μM compound, read-out: c-Met autophosphorylation inhibition score, GTL-16 Cells (1 μM)): 0 to 25% | inhibition at 3 µM ([2]; 3 μM compound, read-out: c-Met autophosphorylation inhibition score, GTL-16 Cells (3 μM)): 0 to 25% | IC50 (NPM-ALK): ≤ 250 nM | IC50 [3]: 1000 to 10000 nM | IC50 [4]: < 100 nM
SMILES: Fc1ccc(F)c(CN2CCNc3ncc(-c4ccnc(N5CCOCC5)c4)cc32)c1Cl [Example 186, 1-(2-Chloro-3,6-difluorobenzyl)-7-(2-morpholin-4-yl-pyridin-4-yl)-1,2,3,4-tetrahydropyrido[2,3-b]pyrazine]
